Source: ChEMBL document CHEMBL5352447, “Development of [1,2]oxazoloisoindoles tubulin polymerization inhibitors: Further chemical modifications and potential therapeutic effects against lymphomas” (Eur J Med Chem, 2022)

Tests used:
HOP-62 = assay: Antiproliferative activity against human HOP-62 cells assessed as cell growth inhibition incubated for 72 hrs by MTT assay; type: functional
HOP-92 = assay: Antiproliferative activity against human HOP-92 cells assessed as cell growth inhibition incubated for 72 hrs by MTT assay; type: functional
NCI-H460 = assay: Antiproliferative activity against human NCI-H460 cells assessed as cell growth inhibition incubated for 72 hrs by MTT assay; type: functional
COLO 205 = assay: Antiproliferative activity against human COLO 205 cells assessed as cell growth inhibition incubated for 72 hrs by MTT assay; type: functional
HCC 2998 = assay: Antiproliferative activity against human HCC 2998 cells assessed as cell growth inhibition incubated for 72 hrs by MTT assay; type: functional
HCT-15 = assay: Antiproliferative activity against human HCT-15 cells assessed as cell growth inhibition incubated for 72 hrs by MTT assay; type: functional
SF-295 = assay: Antiproliferative activity against human SF-295 cells assessed as cell growth inhibition incubated for 72 hrs by MTT assay; type: functional
LOX IMVI = assay: Antiproliferative activity against human LOX IMVI cells assessed as cell growth inhibition incubated for 72 hrs by MTT assay; type: functional
SK-MEL-5 = assay: Antiproliferative activity against human SK-MEL-5 cells assessed as cell growth inhibition incubated for 72 hrs by MTT assay; type: functional
OVCAR-3 = assay: Antiproliferative activity against human OVCAR-3 cells assessed as cell growth inhibition incubated for 72 hrs by MTT assay; type: functional
OVCAR-4 = assay: Antiproliferative activity against human OVCAR-4 cells assessed as cell growth inhibition incubated for 72 hrs by MTT assay; type: functional
OVCAR-8 = assay: Antiproliferative activity against human OVCAR-8 cells assessed as cell growth inhibition incubated for 72 hrs by MTT assay; type: functional
NCI/ADR-RES = assay: Antiproliferative activity against human NCI-ADR-RES cells assessed as cell growth inhibition incubated for 72 hrs by MTT assay; type: functional
SK-OV-3 = assay: Antiproliferative activity against human SK-OV-3 cells assessed as cell growth inhibition incubated for 72 hrs by MTT assay; type: functional
ACHN = assay: Antiproliferative activity against human ACHN cells assessed as cell growth inhibition incubated for 72 hrs by MTT assay; type: functional
PC-3 = assay: Antiproliferative activity against human PC-3 cells assessed as cell growth inhibition incubated for 72 hrs by MTT assay; type: functional
[1] = Antiproliferative activity against human HBL1 cells assessed as proliferating cells at 1 uM incubated for 72 hrs by MTT assay relative to control; type: functional
[2] = Antiproliferative activity against human HBL1 cells assessed as inhibition of cell proliferation incubated for 72 hrs by MTT assay; type: functional, cell-based; conditions: HBL1, 72 h
K562 = assay: Antiproliferative activity against human K562 cells assessed as cell growth inhibition incubated for 72 hrs by MTT assay; type: functional
Malme-3M = assay: Antiproliferative activity against human Malme-3M cells assessed as cell growth inhibition incubated for 72 hrs by MTT assay; type: functional
CAKI-1 = assay: Antiproliferative activity against human CAKI-1 cells assessed as cell growth inhibition incubated for 72 hrs by MTT assay; type: functional
MCF7 = assay: Cytotoxicity against human MCF7 cells assessed as cell growth inhibition; type: functional, cell-based
Tubulin = assay: Inhibition of tubulin assembly (unknown origin); type: protein-complex assay, Homo sapiens
Tubulin (Homo sapiens) = Tubulin (Homo sapiens) (UniProt P68371+Q9H4B7+P0DPH7+P68366+Q13509+Q71U36+P04350+Q3ZCM7+P07437+P68363+Q9BQE3+Q6PEY2+Q13885+Q9BVA1+Q9BUF5); assay: Inhibition of [3H]Colchicine binding to tubulin (unknown origin) at 5 uM relative to control; type: protein-complex assay

Structure (SMILES) | GI50 (HOP-62) [nM] | GI50 (HOP-92) [nM] | GI50 (NCI-H460) [nM] | GI50 (COLO 205) [nM] | GI50 (HCC 2998) [nM] | GI50 (HCT-15) [nM] | GI50 (SF-295) [nM] | GI50 (LOX IMVI) [nM] | GI50 (SK-MEL-5) [nM] | GI50 (OVCAR-3) [nM] | GI50 (OVCAR-4) [nM] | GI50 (OVCAR-8) [nM] | GI50 (NCI/ADR-RES) [nM] | GI50 (SK-OV-3) [nM] | GI50 (ACHN) [nM] | GI50 (PC-3) [nM] | Activity [1] [%] | IC50 [2] [nM] | GI50 (K562) [nM] | GI50 (Malme-3M) [nM] | also measured
CCOC(=O)c1noc2c1CCc1c-2cn(Cc2ccc(OC)cc2)c1-c1cc(OC)c(OC)c(OC)c1 | 3000 | 2720 | 1000 | 1770 | 5170 | 500 | 3020 | 650 | 490 | 370 | 20500 | 3040 | 3520 | 5230 | 3510 | 2900 | 70.1 | 1700 |  |  | 
COc1ccc(Cn2cc3c(c2-c2cc(OC)c(OC)c(OC)c2)CCc2c(CN4CCOCC4)noc2-3)cc1 | 1000 | 900 | 520 | 590 | 2170 | 510 | 470 | 620 | 1860 |  | 6840 | 1920 | 430 | 970 | 630 | 650 | 33.9 | 500 | 430 | 500 | GI50 (CAKI-1): 380 nM; IC50 (MCF7): 470 nM; IC50 (Tubulin): 1000 nM; inhibition (Tubulin (Homo sapiens)): 33%
COc1ccc(Cn2cc3c(c2-c2cc(OC)c(OC)c(OC)c2)CCc2c(CN4CCCC4)noc2-3)cc1 | 1000 | 1350 | 570 | 940 | 1840 | 480 | 460 |  | 1020 |  | 21400 | 3270 | 550 | 6700 | 630 | 640 | 30.6 | 600 | 350 | 500 | GI50 (CAKI-1): 450 nM; IC50 (MCF7): 1100 nM; IC50 (Tubulin): 2800 nM; inhibition (Tubulin (Homo sapiens)): 24%
COc1ccc(Cn2cc3c(c2-c2cc(OC)c(OC)c(OC)c2)CCc2c(CO)noc2-3)cc1 |  | 3390 | 340 | 300 | 1340 | 260 | 180 | 570 | 210 | 220 | 5440 | 380 | 260 | 370 | 620 | 270 | 80.3 | 1700 |  | 13500 | 
